Our source for the Ki values is patent publication US8268881B2, “Carboxamide derivatives as muscarinic receptor antagonists” (Pfizer Limited, priority 2005, dated 2012).

T1 sequence (P20309 whole entry): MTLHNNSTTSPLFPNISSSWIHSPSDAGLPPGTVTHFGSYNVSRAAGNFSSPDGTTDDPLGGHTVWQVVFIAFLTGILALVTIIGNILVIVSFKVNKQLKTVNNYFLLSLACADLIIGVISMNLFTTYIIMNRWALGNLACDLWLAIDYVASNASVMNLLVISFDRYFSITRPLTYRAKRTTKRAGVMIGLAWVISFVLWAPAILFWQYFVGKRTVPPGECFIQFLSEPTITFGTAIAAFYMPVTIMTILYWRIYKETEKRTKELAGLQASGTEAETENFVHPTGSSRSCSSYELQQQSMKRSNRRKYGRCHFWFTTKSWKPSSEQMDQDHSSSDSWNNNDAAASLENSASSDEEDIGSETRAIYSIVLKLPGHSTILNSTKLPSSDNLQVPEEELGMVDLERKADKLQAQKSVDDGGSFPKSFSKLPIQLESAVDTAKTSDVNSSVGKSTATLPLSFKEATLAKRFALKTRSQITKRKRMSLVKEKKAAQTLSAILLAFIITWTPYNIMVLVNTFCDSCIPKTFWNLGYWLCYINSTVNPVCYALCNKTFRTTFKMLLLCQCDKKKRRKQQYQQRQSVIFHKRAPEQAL

One experiment has as its target T1, human muscarinic M3 receptor (Homo sapiens, UniProt P20309).
T1 construct: expressed in transfected cells
As to the kind of experiment: hM3 β-Lac potency assay (cell based β-lactamase).
Details: not given
As to the method: M3 potency was determined in CHO-K1 cells transfected with the NFAT-Betalactamase gene. CHO (Chinese Hamster Ovary) cells recombinantly expressing the human muscarinic M3 receptor were transfected with the NFAT_β-Lac_Zeo plasmid.
The cells were re-suspended at 2×10^5 cells/ml in growth medium (composition as described above). […] Inhibition curves were plotted and IC50 values generated using a 4-parameter sigmoid fit and converted to Ki values using the Cheng-Prusoff correction and the KD value for carbamyl choline in the assay.
As to `CC(C)(CCC(C(N)=O)(c1ccccc1)c1ccccc1)N1CC[C@H](Oc2ccc(Cl)cc2O)C1` [Example 36, 5-[(3S)-3-(4-Chloro-2-Hydroxy-phenoxy)-pyrrolidin-1-yl]-5-methyl-2,2-diphenyl-hexanoic acid amide], the affinity, expressed as Ki, was 17.6 nM.

The same experiment, now with this note: CHO cells expressing human M3 receptor, NFAT β-lactamase reporter; […]; IC50 converted to Ki by Cheng-Prusoff; read-out: Cell based β-lactamase M3 Ki.
As for `CC(C)(CCC(C#N)(c1ccccc1)c1ccccc1)N1CC[C@H](Oc2ccccc2)C1` [Example 1, 5-Methyl-5-[(3S)-3-phenoxypyrrolidin-1-yl]-2,2-diphenylhexanenitrile], the Ki (as a rule, a measure of affinity in units of concentration, obtained from inhibition or displacement) was 8.34 nM.

Staying with this experiment, now noted: CHO cells expressing human M3 receptor, NFAT β-lactamase reporter; inhibition of 80 nM carbamyl choline signal, 4 h; IC50 converted to Ki by Cheng-Prusoff; read-out: Cell based β-lactamase M3 Ki.
Consider `CC(C)(CCC(C(N)=O)(c1ccccc1)c1ccccc1)N1CC[C@@H](Oc2ccccc2)C1` [Example 4, 5-Methyl-5-[(3R)-3-phenoxypyrrolidin-1-yl]-2,2-diphenylhexanamide], for which the inhibitory constant (Ki) amounted to 1.55 nM.
Still for that read-out and setting: the same measure for `COc1cccc(O[C@H]2CCN(C(C)(C)CCC(C(N)=O)(c3ccccc3)c3ccccc3)C2)c1` [Example 6, 5-[(3S)-3-(3-methoxyphenoxy)pyrrolidin-1-yl]-5-methyl-2,2-diphenylhexanamide]: 1.02 nM.
For the compound `CC(C)(CCC(C(N)=O)(c1ccccc1)c1ccccc1)N1CC[C@@H](OCc2ccccc2)C1` [Example 9, 5-[(3R)-3-(Benzyloxy)pyrrolidin-1-yl]-5-methyl-2,2-diphenylhexanamide], the Ki was 1.87 nM.
Still for that read-out and setting: the same measure for `CC(C)(CCC(C(N)=O)(c1ccccc1)c1ccccc1)N1CC[C@H](OCc2ccccc2)C1` [Example 11, 5-[(3S)-3-(Benzyloxy)pyrrolidin-1-yl]-5-methyl-2,2-diphenylhexanamide]: 3.27 nM.
Still for that read-out and setting: the same measure for `COc1cccc(O[C@@H]2CCN(C(C)(C)CCC(C(N)=O)(c3ccccc3)c3ccccc3)C2)c1` [Example 12, 5-[(3R)-3-(3-Methoxyphenoxy)pyrrolidin-1-yl]-5-methyl-2,2-diphenylhexanamide]: 0.3 nM; for `Cc1cccc(O[C@H]2CCN(C(C)(C)CCC(C(N)=O)(c3ccccc3)c3ccccc3)C2)c1` [Example 14, 5-Methyl-5-[(3S)-3-(3-methylphenoxy)pyrrolidin-1-yl]-2,2-diphenylhexanamide]: 1.32 nM.
On the same count and under the same terms, the same measure for `CC(C)(CCC(C(N)=O)(c1ccccc1)c1ccccc1)N1CC[C@@H](Oc2ccc3ncoc3c2)C1` [Example 15, 5-[(3R)-3-(1,3-Benzoxazol-6-yloxy)pyrrolidin-1-yl]5-methyl-2,2-diphenylhexanamide]: 4.25 nM; for `CC(C)(CCC(C(N)=O)(c1ccccc1)c1ccccc1)N1CC[C@H](Oc2ccc(Cl)cc2)C1` [Example 16, 5-[(3S)-3-(4-Chlorophenoxy)pyrrolidin-1-yl]-5-methyl-2,2-diphenylhexanamide]: 1.85 nM.
In the case of `CC(C)(CCC(C(N)=O)(c1ccccc1)c1ccccc1)N1CC[C@H](Oc2cccc(Br)c2)C1` [Example 17, 5-[(3S)-3-(3-Bromophenoxy)pyrrolidin-1-yl]-5-methyl-2,2-diphenylhexanamide], the inhibition constant (Ki) was 5.11 nM.
Take `CC(C)(CCC(C(N)=O)(c1ccccc1)c1ccccc1)N1CC[C@H](Oc2ccc(-c3cccc(O)c3)cc2)C1` [Example 18, 5-{(3S)-3-[(3′-Hydroxybiphenyl-4-yl)oxy]pyrrolidin-1-yl}-5-methyl-2,2-diphenylhexanamide]: the Ki was found to be 6.96 nM.
Still for that read-out and setting: the same measure for `CC(C)(CCC(C(N)=O)(c1ccccc1)c1ccccc1)N1CC[C@H](Oc2cccc(-c3cccc(O)c3)c2)C1` [Example 19, 5-{(3S)-3-[(3′-Hydroxybiphenyl-3-yl)oxy]pyrrolidin-1-yl}-5-methyl-2,2-diphenylhexanamide]: 5.56 nM; for `CC(C)(CCC(C(N)=O)(c1ccccc1)c1ccccc1)N1CC[C@H](Oc2ccc3cc(O)ccc3c2)C1` [Example 20, 5-{(3S)-3-[(6-Hydroxy-2-naphthyl)oxy]pyrrolidin-1-yl}-5-methyl-2,2-diphenylhexanamide]: 108 nM.
As for `CC(C)(CCC(C(N)=O)(c1ccccc1)c1ccccc1)N1CC[C@H](Oc2ccc(C(F)(F)F)cc2)C1` [Example 24, 5-[(3S)-3-(4-trifluoromethyl-phenoxy)pyrrolidin-1-yl]-5-methyl-2,2-diphenylhexanamide], the Ki was found to be 20.7 nM.
Take `CC(C)(CCC(C(N)=O)(c1ccccc1)c1ccccc1)N1CC[C@@H](Oc2ccc(C(F)(F)F)cc2)C1` [Example 26, 5-[(3R)-3-(4-trifluoromethyl-phenoxy)pyrrolidin-1-yl]-5-methyl-2,2-diphenylhexanamide]: the inhibitory constant (Ki) is 1.67 nM.
The same measure, in the same setting: the same measure for `COc1ccc(O[C@@H]2CCN(C(C)(C)CCC(C(N)=O)(c3ccccc3)c3ccccc3)C2)cc1Cl` [Example 28, 5-[(3R)-3-(3-chloro-4-methoxy-phenoxy)pyrrolidin-1-yl]-5-methyl-2,2-diphenylhexanamide]: 47.4 nM; for `Cc1cc(O)cc(O[C@H]2CCN(C(C)(C)CCC(C(N)=O)(c3ccccc3)c3ccccc3)C2)c1` [Example 29, 5-[(3S)-3-(3-Hydroxy-5-methyl-phenoxy)-pyrrolidin-1-yl]-5-methyl-2,2-diphenyl-hexanoic acid amide]: 2.26 nM; for `Cc1c(O)cccc1O[C@H]1CCN(C(C)(C)CCC(C(N)=O)(c2ccccc2)c2ccccc2)C1` [Example 30, 5-[(3S)-3-(3-Hydroxy-2-methyl-phenoxy)-pyrrolidin-1-yl]-5-methyl-2,2-diphenyl-hexanoic acid amide]: 0.333 nM.
As for `CC(C)(CCC(C(N)=O)(c1ccccc1)c1ccccc1)N1CC[C@H](Oc2cc(O)c(Cl)cc2Cl)C1` [Example 31, 5-[(3S)-3-(2,4-Dichloro-5-Hydroxy-phenoxy)-pyrrolidin-1-yl]-5-methyl-2,2-diphenyl-hexanoic acid amide], the inhibitory constant (Ki) is 45.1 nM.
As for `CC(C)(CCC(C(N)=O)(c1ccccc1)c1ccccc1)N1CC[C@H](Oc2cc(Cl)c(Cl)cc2O)C1` [Example 32, 5-[(3S)-3-(4,5-Dichloro-2-Hydroxy-phenoxy)-pyrrolidin-1-yl]-5-methyl-2,2-diphenyl-hexanoic acid amide], the inhibition constant Ki is 36.4 nM.
As to `CC(C)(CCC(C(N)=O)(c1ccccc1)c1ccccc1)N1CC[C@H](Oc2cc(O)cc(Cl)c2)C1` [Example 34, 5-[(3S)-3-(3-Chloro-5-hydroxy-phenoxy)-pyrrolidin-1-yl]-5-methyl-2,2-diphenyl-hexanoic acid amide], the inhibitory constant (Ki) is 6.57 nM.
For the compound `COc1cc(Cl)ccc1O[C@H]1CCN(C(C)(C)CCC(C(N)=O)(c2ccccc2)c2ccccc2)C1` [Example 35, 5-[(3S)-3-(4-Chloro-2-Methoxy-phenoxy)-pyrrolidin-1-yl]-5-methyl-2,2-diphenyl-hexanoic acid amide], the Ki came to 7.28 nM.
The same measure, in the same setting: the same measure for `COc1cccc(O[C@H]2CCN(C(C)(C)CCC(C(N)=O)(c3ccccc3)c3ccccc3)C2)c1Cl` [Example 37, 5-[(3S)-3-(2-Chloro-3-Methoxy-phenoxy)-pyrrolidin-1-yl]-5-methyl-2,2-diphenyl-hexanoic acid amide]: 5.01 nM; for `CC(C)(CCC(C(N)=O)(c1ccccc1)c1ccccc1)N1CC[C@H](Oc2cccc(O)c2Cl)C1` [Example 38, 5-[(3S)-3-(2-Chloro-3-Hydroxy-phenoxy)-pyrrolidin-1-yl]-5-methyl-2,2-diphenyl-hexanoic acid amide]: 0.996 nM; for `CC(C)(CCC(C(N)=O)(c1ccccc1)c1ccccc1)N1CC[C@H](Oc2ccc(Cl)c(O)c2)C1` [Example 39, 5-[(3S)-3-(4-Chloro-3-Hydroxy-phenoxy)-pyrrolidin-1-yl]-5-methyl-2,2-diphenylhexanoic acid amide]: 1.97 nM.
Same read-out and setting: the same measure for `CC(C)(CCC(C(N)=O)(c1ccccc1)c1ccccc1)N1CC[C@H](Oc2cc(O)ccc2Cl)C1` [Example 40, 5-[(3S)-3-(2-Chloro-5-Hydroxy-phenoxy)-pyrrolidin-1-yl]-5-methyl-2,2-diphenyl-hexanoic acid amide]: 6.09 nM.
Regarding `COc1c(Cl)cccc1O[C@@H]1CCN(C(C)(C)CCC(C(N)=O)(c2ccccc2)c2ccccc2)C1` [Example 42, 5-[(3R)-3-(3-Chloro-2-Methoxy-phenoxy)-pyrrolidin-1-yl]-5-methyl-2,2-diphenyl-hexanoic acid amide], the Ki was 22.1 nM.
Still for that read-out and setting: the same measure for `CC(C)(CCC(C(N)=O)(c1ccccc1)c1ccccc1)N1CC[C@@H](Oc2cccc(Cl)c2O)C1` [Example 43, 5-[(3R)-3-(3-Chloro-2-Hydroxy-phenoxy)-pyrrolidin-1-yl]-5-methyl-2,2-diphenyl-hexanoic acid amide]: 5.35 nM; for `Cc1cc(O)c(C)c(O[C@H]2CCN(C(C)(C)CCC(C(N)=O)(c3ccccc3)c3ccccc3)C2)c1` [Example 44, 5-[(3S)-3-(3-Hydroxy-2,5-dimethyl-phenoxy)-pyrrolidin-1-yl]-5-methyl-2,2-diphenyl-hexanoic acid amide]: 32.2 nM; for `CC(C)(CCC(C(N)=O)(c1ccccc1)c1ccccc1)N1CC[C@H](Oc2cc(O)cc(F)c2)C1` [Example 46, 5-[(3S)-3-(3-Fluoro-5-Hydroxy-phenoxy)-pyrrolidin-1-yl]-5-methyl-2,2-diphenyl-hexanoic acid amide]: 1.74 nM.
On to `CC(C)(CCC(C(N)=O)(c1ccccc1)c1ccccc1)N1CC[C@@H](Oc2cc(O)cc(C(F)(F)F)c2)C1` [Example 49, 5-[(3R)-3-(3-Hydroxy-5-trifluoromethyl-phenoxy)-pyrrolidin-1-yl]-5-methyl-2,2-diphenyl-hexanoic acid amide], for which the Ki amounted to 48.5 nM.
Turning to `COc1cc(O[C@H]2CCN(C(C)(C)CCC(C(N)=O)(c3ccccc3)c3ccccc3)C2)ccc1F` [Example 50, 5-[(3S)-3-(4-Fluoro-3-Methoxy-phenoxy)-pyrrolidin-1-yl]-5-methyl-2,2-diphenyl-hexanoic acid amide], the Ki was 3.18 nM.
